According to ChEMBL document CHEMBL3871268, “Chalcogen containing heterocyclic scaffolds: New hybrids with antitumoral activity” (Eur J Med Chem, 2016):

Assays:
[1] = Cell cycle analysis in human MCF7 cells assessed as accumulation at G0/G1 phase at 25 uM measured after 24 hrs by propidium iodide staining-based flow cytometry (reference value: 73.6%); assay type: functional
[2] = Cell cycle analysis in human MCF7 cells assessed as accumulation at SubG1 phase at 18 uM measured after 24 hrs by propidium iodide staining-based flow cytometry (reference value: 2.6%); assay type: functional
[3] = Cell cycle analysis in human MCF7 cells assessed as accumulation at S phase at 5 uM measured after 24 hrs by propidium iodide staining-based flow cytometry (reference value: 15.3%); assay type: functional
[4] = Cell cycle analysis in human MCF7 cells assessed as accumulation at G2/M phase at 1 uM measured after 24 hrs by propidium iodide staining-based flow cytometry (reference value: 8.9%); assay type: functional
[5] = Cell cycle analysis in human MCF7 cells assessed as accumulation at S phase at 25 uM measured after 24 hrs by propidium iodide staining-based flow cytometry (reference value: 15.3%); assay type: functional
[6] = Cell cycle arrest in human MCF7 cells assessed as increase in subdiploid cells at 18 uM after 48 hrs by TUNEL based flow cytometry assay; assay type: functional
[7] = Cell cycle arrest in human MCF7 cells assessed as sub-diploid cells at 18 uM pretreated with pan-caspase inhibitor Z-VAD-FMK for 1 hr followed by compound addition measured after 48 hrs by propidium iodide staining-based flow cytometry assay (reference value: 1.9%); assay type: functional; parameters: scale not given: the % may be the effect or the level left
[8] = Cell cycle analysis in human MCF7 cells assessed as accumulation at G2/M phase at 10 uM measured after 24 hrs by propidium iodide staining-based flow cytometry (reference value: 8.9%); assay type: functional
[9] = Cell cycle analysis in human MCF7 cells assessed as accumulation at SubG1 phase at 10 uM measured after 24 hrs by propidium iodide staining-based flow cytometry (reference value: 2.6%); assay type: functional
[10] = Cell cycle analysis in human MCF7 cells assessed as accumulation at G0/G1 phase at 1 uM measured after 24 hrs by propidium iodide staining-based flow cytometry (reference value: 73.6%); assay type: functional
[11] = Cell cycle arrest in human MCF7 cells assessed as sub-diploid cells at 18 uM measured after 48 hrs by propidium iodide staining-based flow cytometry (reference value: 1.9%); assay type: functional
[12] = Cell cycle analysis in human MCF7 cells assessed as accumulation at S phase at 18 uM measured after 24 hrs by propidium iodide staining-based flow cytometry (reference value: 15.3%); assay type: functional
[13] = Cell cycle analysis in human MCF7 cells assessed as accumulation at SubG1 phase at 5 uM measured after 24 hrs by propidium iodide staining-based flow cytometry (reference value: 2.6%); assay type: functional
[14] = Cell cycle analysis in human MCF7 cells assessed as accumulation at G0/G1 phase at 18 uM measured after 24 hrs by propidium iodide staining-based flow cytometry (reference value: 73.6%); assay type: functional
[15] = Cell cycle analysis in human MCF7 cells assessed as accumulation at SubG1 phase at 1 uM measured after 24 hrs by propidium iodide staining-based flow cytometry (reference value: 2.6%); assay type: functional
[16] = Cell cycle arrest in human MCF7 cells assessed as M1 quadrant cells at 18 uM measured after 48 hrs by propidium iodide staining-based flow cytometry (reference value: 98.1%); assay type: functional
[17] = Cell cycle analysis in human MCF7 cells assessed as accumulation at G0/G1 phase at 5 uM measured after 24 hrs by propidium iodide staining-based flow cytometry (reference value: 73.6%); assay type: functional
MCF7 = assay: Selectivity index, ratio of GI50 for human 184B5 cells to GI50 for human MCF7 cells; assay type: functional
[18] = Cytotoxicity against human 184B5 cells assessed as reduction in cell viability measured after 72 hrs by MTT assay; assay type: toxicity, cell-based
[19] = Cytotoxicity against human PC3 cells assessed as reduction in cell viability measured after 72 hrs by MTT assay; assay type: functional; details: PC-3, 72 h
[20] = Cell cycle arrest in human MCF7 cells assessed as M1 quadrant cells at 18 uM pretreated with autophagy inhibitor wortmannin for 1 hr followed by compound addition measured after 48 hrs by propidium iodide staining-based flow cytometry assay (reference value: 98.1%); assay type: functional; parameters: scale not given: the % may be the effect or the level left
[21] = Cell cycle analysis in human MCF7 cells assessed as accumulation at G0/G1 phase at 10 uM measured after 24 hrs by propidium iodide staining-based flow cytometry (reference value: 73.6%); assay type: functional
[22] = Cell cycle arrest in human MCF7 cells assessed as M1 quadrant cells at 18 uM pretreated with pan-caspase inhibitor Z-VAD-FMK for 1 hr followed by compound addition measured after 48 hrs by propidium iodide staining-based flow cytometry assay (reference value: 98.1%); assay type: functional; parameters: scale not given: the % may be the effect or the level left
[23] = Cell cycle analysis in human MCF7 cells assessed as accumulation at S phase at 1 uM measured after 24 hrs by propidium iodide staining-based flow cytometry (reference value: 15.3%); assay type: functional
[24] = Cytotoxicity against human MCF7 cells assessed as reduction in cell viability measured after 72 hrs by MTT assay; assay type: functional; details: MCF7, 72 h
[25] = Cell cycle analysis in human MCF7 cells assessed as accumulation at S phase at 10 uM measured after 24 hrs by propidium iodide staining-based flow cytometry (reference value: 15.3%); assay type: functional
[26] = Cell cycle analysis in human MCF7 cells assessed as accumulation at G2/M phase at 25 uM measured after 24 hrs by propidium iodide staining-based flow cytometry (reference value: 8.9%); assay type: functional
[27] = Cell cycle analysis in human MCF7 cells assessed as accumulation at SubG1 phase at 25 uM measured after 24 hrs by propidium iodide staining-based flow cytometry (reference value: 2.6%); assay type: functional
[28] = Cell cycle analysis in human MCF7 cells assessed as accumulation at G2/M phase at 5 uM measured after 24 hrs by propidium iodide staining-based flow cytometry (reference value: 8.9%); assay type: functional
[29] = Cell cycle analysis in human MCF7 cells assessed as accumulation at G2/M phase at 18 uM measured after 24 hrs by propidium iodide staining-based flow cytometry (reference value: 8.9%); assay type: functional
[30] = Cell cycle arrest in human MCF7 cells assessed as sub-diploid cells at 18 uM pretreated with autophagy inhibitor wortmannin for 1 hr followed by compound addition measured after 48 hrs by propidium iodide staining-based flow cytometry assay (reference value: 1.9%); assay type: functional; parameters: scale not given: the % may be the effect or the level left

Compound `Cc1noc(C)c1CSC#N` has an Activity [1] of 54.6%, an Activity [2] of 5.7% and an Activity [3] of 14.9%. It also gave an Activity [4] of 8.9%, an Activity [5] of 16.3% and an Activity [6] greater than 60%. For the same compound, the Activity [7] was 19.1%, the Activity [8] was 51.8% and the Activity [9] was 3.4%. The Activity [10] was 67.6%, the Activity [11] was 53.7% and the Activity [12] was 9.9%. The Activity [13] was 3.3%, the Activity [14] was 18.4% and the Activity [15] was 2%. The Activity [16] was 46%, the Activity [17] was 68.1% and the RatioGI50 (MCF7) was 9.6. It also gave a GI50 at 72 h ([18]; 184B5 cells) of 46.2 µM, an LC50 ([18]; 184b5, 72 h) of 99.5 µM and a TGI ([18]; 184b5, 72 h) of 74.2 µM. It also gave a GI50 [19] of 8 µM, an LC50 (concentration lethal to 50% of cells) [19] of 21.9 µM and a TGI [19] of 13.8 µM. The Activity [20] was 49.6%, the Activity [21] was 33.8% and the Activity [22] was 80.9%. For the same compound, the Activity [23] was 22.2%, the GI50 [24] was 4.8 µM and the LC50 [24] was 84.9 µM. For the same compound, the TGI [24] was 44.6 µM, the Activity [25] was 11.6% and the Activity [26] was 25.8%. The Activity [27] was 4.4%, the Activity [28] was 13.2% and the Activity [29] was 66.1%. For the same compound, the Activity [30] was 50.4%.
